Experimental data: PMC5185470 (Bioorganic & medicinal chemistry letters, 2016)
pIC50: −log10 of the molar value.

Assays:
AChE = AChE (Homo sapiens, UniProt P22303); test: biochemical; format: biochemical; conditions: for increase of AChE inhibition relative to the unsubstituted nitropyridazine: vs JWS
BuChE = BuChE (Homo sapiens, UniProt P06276); test: biochemical
M2 receptor = target: T1, M2 receptor (Homo sapiens, UniProt P08172); conditions: read-out: M2 receptors IC50; previous studies; cited from earlier work
T1 sequence (P08172 1-466): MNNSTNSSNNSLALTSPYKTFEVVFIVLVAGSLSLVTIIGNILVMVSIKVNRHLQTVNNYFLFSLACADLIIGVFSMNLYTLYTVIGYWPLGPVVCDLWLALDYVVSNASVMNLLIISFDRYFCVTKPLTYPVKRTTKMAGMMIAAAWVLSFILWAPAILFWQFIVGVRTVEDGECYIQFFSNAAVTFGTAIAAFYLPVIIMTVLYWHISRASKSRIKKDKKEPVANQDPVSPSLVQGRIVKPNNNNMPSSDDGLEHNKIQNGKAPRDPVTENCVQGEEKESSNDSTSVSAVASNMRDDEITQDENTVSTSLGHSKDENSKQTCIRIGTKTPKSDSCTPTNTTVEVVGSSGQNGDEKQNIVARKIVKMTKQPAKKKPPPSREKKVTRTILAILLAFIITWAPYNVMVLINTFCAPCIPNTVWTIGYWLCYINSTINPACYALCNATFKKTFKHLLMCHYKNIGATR

[1] = Chemical decomposition on storage; format: physicochemical; conditions: estimated, after 6 months; nitro replaced by hydroxyl

Chain of AChE (P22303 32-614): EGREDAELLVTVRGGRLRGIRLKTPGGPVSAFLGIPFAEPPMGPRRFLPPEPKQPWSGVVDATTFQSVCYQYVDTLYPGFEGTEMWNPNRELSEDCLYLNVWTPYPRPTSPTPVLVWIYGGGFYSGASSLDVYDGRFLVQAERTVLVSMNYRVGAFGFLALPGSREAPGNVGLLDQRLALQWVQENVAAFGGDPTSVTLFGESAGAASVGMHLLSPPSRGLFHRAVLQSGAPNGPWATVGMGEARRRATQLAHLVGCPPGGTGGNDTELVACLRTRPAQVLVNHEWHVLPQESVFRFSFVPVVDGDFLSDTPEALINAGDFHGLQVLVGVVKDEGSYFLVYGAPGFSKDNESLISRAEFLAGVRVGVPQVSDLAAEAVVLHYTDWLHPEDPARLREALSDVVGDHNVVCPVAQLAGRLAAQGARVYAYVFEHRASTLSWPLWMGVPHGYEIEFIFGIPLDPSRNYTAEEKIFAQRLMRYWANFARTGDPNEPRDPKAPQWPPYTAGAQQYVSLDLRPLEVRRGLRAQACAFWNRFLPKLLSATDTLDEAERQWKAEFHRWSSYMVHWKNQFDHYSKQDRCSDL
Chain of BuChE (P06276 29-602): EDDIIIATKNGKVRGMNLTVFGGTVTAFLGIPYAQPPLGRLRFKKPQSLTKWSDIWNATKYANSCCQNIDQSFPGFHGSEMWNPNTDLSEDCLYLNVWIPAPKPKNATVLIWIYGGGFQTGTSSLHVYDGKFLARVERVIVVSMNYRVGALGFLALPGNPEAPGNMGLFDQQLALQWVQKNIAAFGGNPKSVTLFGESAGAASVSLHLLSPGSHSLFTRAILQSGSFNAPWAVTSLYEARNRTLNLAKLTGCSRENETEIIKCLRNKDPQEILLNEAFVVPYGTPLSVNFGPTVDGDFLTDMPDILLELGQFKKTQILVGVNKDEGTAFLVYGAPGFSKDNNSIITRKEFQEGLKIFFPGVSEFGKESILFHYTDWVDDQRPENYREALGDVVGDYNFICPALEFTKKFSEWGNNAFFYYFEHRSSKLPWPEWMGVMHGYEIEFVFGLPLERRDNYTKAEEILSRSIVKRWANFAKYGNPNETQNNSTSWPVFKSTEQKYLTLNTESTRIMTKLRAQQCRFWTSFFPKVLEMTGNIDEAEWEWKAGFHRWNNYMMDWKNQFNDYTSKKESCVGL

Structure (SMILES) | pIC50 (AChE) | pIC50 (BuChE) | further results
Cc1c(-c2ccccc2)nnc(NCCSCc2ccc(CN(C)C)o2)c1[N+](=O)[O-] [Compound 10] | – | – | increase of AChE inhibition relative to the unsubstituted nitropyridazine (AChE): ~3 fold
CN(C)Cc1ccc(CSCCNc2nnc(-c3ccccc3)c(-c3ccccc3)c2[N+](=O)[O-])o1 [Compound 12] | – | – | increase of AChE inhibition relative to the unsubstituted nitropyridazine (AChE): ~3 fold
CN(C)Cc1ccc(CSCCNC(=O)c2ccccc2-c2ccccc2C(=O)O)o1 [Compound 24] | < 4.30 | < 4.30 | –
CN(C)Cc1ccc(CSCCNc2nnccc2[N+](=O)[O-])o1 [JWS, N-(2-(((5-((dimethylamino)methyl)furan-2-yl)methyl)thio)ethyl)-4-nitropyridazin-3-amine] | – | – | pIC50 (M2 receptor): 7.22; chemical decomposition [1]: about 10%
Cc1ccc(S(=O)(=O)NCCSCc2ccc(CN(C)C)o2)cc1 [Compound 23] | < 4.30 | – | –
CC1CC(=O)N(CCSCc2ccc(CN(C)C)o2)C1=O (centres unmarked) [Compound 28] | – | < 4.30 | –
CS/C(=N\S(=O)(=O)c1ccc(C)cc1)NCCSCc1ccc(CN(C)C)o1 [Compound 22] | < 4.30 | < 4.30 | –
CN(C)Cc1ccc(CSCCNc2nc(N)no2)o1 [Compound 17] | < 4.30 | < 4.30 | –
CN(C)Cc1ccc(CSCCN2C(=O)c3ccc([N+](=O)[O-])cc3C2=O)o1 [Compound 31] | – | < 4.30 | –
CN(C)Cc1ccc(CSCCNc2ccc(Cl)nn2)o1 [Compound 16] | – | < 4.30 | –
CN(C)Cc1ccc(CSCCNc2nc(N)n[nH]2)o1 [Compound 18] | < 4.30 | < 4.30 | –
Cc1cccc(Nc2ccccc2C(=O)NCCSCc2ccc(CN(C)C)o2)c1C [Compound 25] | < 4.30 | < 4.30 | –
CN(C)Cc1ccc(CSCCN2C(=O)c3cccc4cc([N+](=O)[O-])cc(c34)C2=O)o1 [Compound 33] | – | – | fold less active than donepezil (AChE) (AChE; vs donepezil IC50 = 0.050 µM): 3 fold
CN(C)Cc1ccc(CSCCN2C(=O)CCC2=O)o1 [Compound 27] | – | < 4.30 | –
